Results taken from the supplement of paper PMC6315032.

What was measured:
Assay in all cases: apparent dissociation constant (pKDapp, Kinobeads competition, Cheng-Prusoff corrected) (-log10 M); higher = tighter binding
EPHB6 = EPHB6 (UniProt O15197); settings: affinity matrix / lysate: Kinobeads, mixed HEK293/K-562/placenta lysate
EPHA7 = EPHA7 (UniProt Q15375); settings: affinity matrix / lysate: Kinobeads, mixed HEK293/K-562/placenta lysate
PIK3CD = biological target: T1, PIK3CD (UniProt O00329)
T1 sequence (whole entry): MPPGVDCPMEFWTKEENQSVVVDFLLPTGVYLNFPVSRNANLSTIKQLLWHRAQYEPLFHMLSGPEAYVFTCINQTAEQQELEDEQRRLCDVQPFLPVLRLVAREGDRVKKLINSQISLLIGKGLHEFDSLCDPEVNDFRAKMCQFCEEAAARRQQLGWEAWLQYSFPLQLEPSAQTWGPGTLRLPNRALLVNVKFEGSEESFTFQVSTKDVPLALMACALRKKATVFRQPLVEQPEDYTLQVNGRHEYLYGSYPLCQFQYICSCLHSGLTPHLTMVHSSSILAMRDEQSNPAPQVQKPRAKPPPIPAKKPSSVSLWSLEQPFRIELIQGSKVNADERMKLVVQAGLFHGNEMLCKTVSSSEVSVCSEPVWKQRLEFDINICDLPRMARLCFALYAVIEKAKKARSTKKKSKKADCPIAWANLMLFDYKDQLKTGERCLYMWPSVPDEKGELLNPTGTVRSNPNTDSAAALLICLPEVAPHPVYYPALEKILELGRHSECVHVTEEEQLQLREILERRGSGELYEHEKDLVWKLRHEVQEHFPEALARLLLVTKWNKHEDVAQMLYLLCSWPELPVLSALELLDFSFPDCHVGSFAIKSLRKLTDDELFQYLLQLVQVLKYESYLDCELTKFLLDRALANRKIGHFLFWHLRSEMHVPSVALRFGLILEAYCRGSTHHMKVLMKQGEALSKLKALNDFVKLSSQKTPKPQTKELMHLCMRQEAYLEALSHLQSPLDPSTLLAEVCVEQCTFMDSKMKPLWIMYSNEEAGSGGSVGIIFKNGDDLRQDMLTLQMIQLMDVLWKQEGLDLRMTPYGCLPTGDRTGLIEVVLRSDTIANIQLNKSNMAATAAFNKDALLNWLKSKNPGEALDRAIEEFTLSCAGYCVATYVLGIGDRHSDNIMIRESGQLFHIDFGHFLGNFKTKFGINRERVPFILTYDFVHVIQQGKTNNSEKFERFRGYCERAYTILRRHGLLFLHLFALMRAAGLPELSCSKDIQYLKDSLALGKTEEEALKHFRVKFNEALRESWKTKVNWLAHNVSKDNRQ

AURKC = AURKC (UniProt Q9UQB9); settings: affinity matrix / lysate: Kinobeads, mixed HEK293/K-562/placenta lysate
CAMKK1 = CAMKK1 (UniProt Q8N5S9); settings: affinity matrix / lysate: Kinobeads, mixed HEK293/K-562/placenta lysate
TAOK2 = TAOK2 (UniProt Q9UL54); settings: affinity matrix / lysate: Kinobeads, mixed HEK293/K-562/placenta lysate
KIAA1804 = KIAA1804 (UniProt Q5TCX8); settings: affinity matrix / lysate: Kinobeads, mixed HEK293/K-562/placenta lysate
CSNK1G2 = CSNK1G2 (UniProt P78368); settings: affinity matrix / lysate: Kinobeads, mixed HEK293/K-562/placenta lysate
CAMK1D = CAMK1D (UniProt Q8IU85); settings: affinity matrix / lysate: Kinobeads, mixed HEK293/K-562/placenta lysate
ACVRL1 = ACVRL1 (UniProt P37023); settings: affinity matrix / lysate: Kinobeads, mixed HEK293/K-562/placenta lysate
RIPK4 = RIPK4 (UniProt P57078); settings: affinity matrix / lysate: Kinobeads, mixed HEK293/K-562/placenta lysate
ADCK4 = ADCK4 (UniProt Q96D53); settings: affinity matrix / lysate: Kinobeads, mixed HEK293/K-562/placenta lysate
RNASEL = RNASEL (UniProt Q05823); settings: affinity matrix / lysate: Kinobeads, mixed HEK293/K-562/placenta lysate
PRKACA = PRKACA (UniProt P17612); settings: affinity matrix / lysate: Kinobeads, mixed HEK293/K-562/placenta lysate
CSNK1G1 = CSNK1G1 (UniProt Q9HCP0); settings: affinity matrix / lysate: Kinobeads, mixed HEK293/K-562/placenta lysate
ADCK5 = ADCK5 (UniProt Q3MIX3); settings: affinity matrix / lysate: Kinobeads, mixed HEK293/K-562/placenta lysate
DYRK2 = DYRK2 (UniProt Q92630); settings: affinity matrix / lysate: Kinobeads, mixed HEK293/K-562/placenta lysate
MAPK10 = MAPK10 (UniProt P53779); settings: affinity matrix / lysate: Kinobeads, mixed HEK293/K-562/placenta lysate
CAMK1 = CAMK1 (UniProt Q14012); settings: affinity matrix / lysate: Kinobeads, mixed HEK293/K-562/placenta lysate
MAP3K10 = MAP3K10 (UniProt Q02779); settings: affinity matrix / lysate: Kinobeads, mixed HEK293/K-562/placenta lysate
RP6-213H19 1 = settings: affinity matrix / lysate: Kinobeads, mixed HEK293/K-562/placenta lysate
MAPK15 = MAPK15 (UniProt Q8TD08); settings: affinity matrix / lysate: Kinobeads, mixed HEK293/K-562/placenta lysate
EIF2AK3 = EIF2AK3 (UniProt Q9NZJ5); settings: affinity matrix / lysate: Kinobeads, mixed HEK293/K-562/placenta lysate
[1] = affinity matrix / lysate: Lipid Kinobeads, mixed HeLa/Jurkat/K-562 lysate

EPHA7, sequence (Q15375 whole entry, looked up): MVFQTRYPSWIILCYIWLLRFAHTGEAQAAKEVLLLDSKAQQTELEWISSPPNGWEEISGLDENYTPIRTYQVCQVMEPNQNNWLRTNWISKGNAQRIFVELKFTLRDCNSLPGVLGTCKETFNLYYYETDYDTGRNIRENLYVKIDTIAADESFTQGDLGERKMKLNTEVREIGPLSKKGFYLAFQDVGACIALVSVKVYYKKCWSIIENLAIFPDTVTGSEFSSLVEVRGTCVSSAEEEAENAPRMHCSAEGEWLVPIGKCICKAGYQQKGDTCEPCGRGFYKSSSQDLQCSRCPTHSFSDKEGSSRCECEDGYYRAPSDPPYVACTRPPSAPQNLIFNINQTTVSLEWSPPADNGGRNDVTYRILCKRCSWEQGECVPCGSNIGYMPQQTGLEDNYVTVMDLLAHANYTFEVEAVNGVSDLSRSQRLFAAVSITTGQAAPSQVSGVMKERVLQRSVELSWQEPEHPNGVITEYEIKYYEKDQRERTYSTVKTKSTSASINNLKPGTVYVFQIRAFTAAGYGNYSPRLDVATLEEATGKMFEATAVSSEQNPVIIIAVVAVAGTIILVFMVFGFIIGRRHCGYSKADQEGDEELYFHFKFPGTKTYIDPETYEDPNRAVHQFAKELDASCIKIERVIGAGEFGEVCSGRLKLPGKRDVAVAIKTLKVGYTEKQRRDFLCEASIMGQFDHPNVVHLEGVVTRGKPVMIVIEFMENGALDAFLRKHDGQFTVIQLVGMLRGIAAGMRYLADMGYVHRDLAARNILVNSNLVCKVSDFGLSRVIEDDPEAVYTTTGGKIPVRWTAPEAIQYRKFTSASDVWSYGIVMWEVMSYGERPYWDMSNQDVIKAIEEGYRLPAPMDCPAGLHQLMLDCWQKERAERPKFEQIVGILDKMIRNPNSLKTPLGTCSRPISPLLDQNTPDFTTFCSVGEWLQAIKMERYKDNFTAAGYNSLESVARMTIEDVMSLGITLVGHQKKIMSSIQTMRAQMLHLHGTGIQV
TAOK2, sequence (Q9UL54 whole entry): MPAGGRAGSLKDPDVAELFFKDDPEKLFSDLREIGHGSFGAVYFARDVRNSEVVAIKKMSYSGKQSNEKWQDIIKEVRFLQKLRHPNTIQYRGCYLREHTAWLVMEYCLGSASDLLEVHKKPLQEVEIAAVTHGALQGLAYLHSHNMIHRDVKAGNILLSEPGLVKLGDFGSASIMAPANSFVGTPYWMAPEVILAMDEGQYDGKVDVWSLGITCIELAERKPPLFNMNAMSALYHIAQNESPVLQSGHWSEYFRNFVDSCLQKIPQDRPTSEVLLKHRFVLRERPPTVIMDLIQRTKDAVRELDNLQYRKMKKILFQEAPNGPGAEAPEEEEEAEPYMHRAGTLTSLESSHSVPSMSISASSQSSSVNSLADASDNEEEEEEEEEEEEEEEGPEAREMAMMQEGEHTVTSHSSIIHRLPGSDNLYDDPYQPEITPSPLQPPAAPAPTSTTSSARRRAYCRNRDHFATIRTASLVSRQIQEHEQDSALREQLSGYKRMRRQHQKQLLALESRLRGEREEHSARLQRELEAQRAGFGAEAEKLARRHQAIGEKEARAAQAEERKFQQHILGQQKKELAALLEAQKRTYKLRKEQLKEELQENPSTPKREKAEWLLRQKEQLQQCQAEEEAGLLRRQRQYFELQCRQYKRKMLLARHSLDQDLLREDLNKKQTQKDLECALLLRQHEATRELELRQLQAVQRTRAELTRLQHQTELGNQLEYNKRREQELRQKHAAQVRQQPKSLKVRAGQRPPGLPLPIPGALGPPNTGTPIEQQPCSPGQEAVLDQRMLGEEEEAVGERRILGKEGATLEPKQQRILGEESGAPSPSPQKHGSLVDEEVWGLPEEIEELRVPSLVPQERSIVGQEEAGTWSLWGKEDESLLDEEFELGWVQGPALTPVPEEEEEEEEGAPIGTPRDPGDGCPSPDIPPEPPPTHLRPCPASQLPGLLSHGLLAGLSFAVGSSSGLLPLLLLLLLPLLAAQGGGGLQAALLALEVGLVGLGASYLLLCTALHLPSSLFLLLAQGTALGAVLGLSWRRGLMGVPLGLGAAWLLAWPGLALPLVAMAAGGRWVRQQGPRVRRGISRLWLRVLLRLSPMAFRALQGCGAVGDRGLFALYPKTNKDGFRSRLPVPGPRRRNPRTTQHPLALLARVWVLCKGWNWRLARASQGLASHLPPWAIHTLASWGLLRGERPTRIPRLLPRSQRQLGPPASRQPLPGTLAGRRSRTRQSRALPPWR
CAMKK1, sequence (Q8N5S9 whole entry, looked up): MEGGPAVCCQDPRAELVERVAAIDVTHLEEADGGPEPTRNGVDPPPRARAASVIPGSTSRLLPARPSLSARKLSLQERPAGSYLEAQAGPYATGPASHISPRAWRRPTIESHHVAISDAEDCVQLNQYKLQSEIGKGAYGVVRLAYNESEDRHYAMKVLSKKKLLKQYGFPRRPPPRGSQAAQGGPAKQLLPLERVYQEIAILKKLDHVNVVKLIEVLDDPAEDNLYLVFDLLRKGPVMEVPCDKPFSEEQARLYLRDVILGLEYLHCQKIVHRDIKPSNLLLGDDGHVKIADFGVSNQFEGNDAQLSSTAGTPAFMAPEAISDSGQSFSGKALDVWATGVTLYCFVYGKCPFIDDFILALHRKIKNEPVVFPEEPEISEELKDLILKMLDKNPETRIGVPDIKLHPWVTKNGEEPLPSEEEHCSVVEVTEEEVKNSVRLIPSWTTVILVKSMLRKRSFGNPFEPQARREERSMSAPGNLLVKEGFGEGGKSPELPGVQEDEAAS
KIAA1804, sequence (Q5TCX8 whole entry): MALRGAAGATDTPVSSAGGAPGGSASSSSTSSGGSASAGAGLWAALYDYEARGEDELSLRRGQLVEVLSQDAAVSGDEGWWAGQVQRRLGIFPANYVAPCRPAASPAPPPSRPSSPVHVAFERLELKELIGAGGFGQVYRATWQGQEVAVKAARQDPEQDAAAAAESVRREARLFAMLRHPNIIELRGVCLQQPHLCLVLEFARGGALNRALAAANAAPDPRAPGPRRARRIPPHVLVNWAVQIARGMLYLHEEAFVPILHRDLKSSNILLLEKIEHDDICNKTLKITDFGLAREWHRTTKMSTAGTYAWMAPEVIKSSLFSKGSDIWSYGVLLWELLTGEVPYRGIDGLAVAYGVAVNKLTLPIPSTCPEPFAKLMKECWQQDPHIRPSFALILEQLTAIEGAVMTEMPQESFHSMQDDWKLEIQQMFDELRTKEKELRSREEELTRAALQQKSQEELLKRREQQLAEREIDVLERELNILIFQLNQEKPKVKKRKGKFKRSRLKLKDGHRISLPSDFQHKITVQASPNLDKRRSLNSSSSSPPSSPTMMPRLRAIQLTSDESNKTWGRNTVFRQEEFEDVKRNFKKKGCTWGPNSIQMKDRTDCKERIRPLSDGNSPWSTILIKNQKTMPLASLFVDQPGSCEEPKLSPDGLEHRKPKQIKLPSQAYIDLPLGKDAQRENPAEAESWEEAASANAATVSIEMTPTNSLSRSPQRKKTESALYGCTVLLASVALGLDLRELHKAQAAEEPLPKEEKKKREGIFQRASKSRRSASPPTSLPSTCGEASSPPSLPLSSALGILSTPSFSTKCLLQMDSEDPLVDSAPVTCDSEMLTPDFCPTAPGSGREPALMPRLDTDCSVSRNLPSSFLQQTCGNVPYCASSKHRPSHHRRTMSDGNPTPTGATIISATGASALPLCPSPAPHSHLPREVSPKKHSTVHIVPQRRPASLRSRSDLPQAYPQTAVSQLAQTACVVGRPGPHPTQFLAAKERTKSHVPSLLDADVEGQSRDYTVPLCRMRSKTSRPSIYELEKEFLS
EPHB6, sequence (O15197 whole entry): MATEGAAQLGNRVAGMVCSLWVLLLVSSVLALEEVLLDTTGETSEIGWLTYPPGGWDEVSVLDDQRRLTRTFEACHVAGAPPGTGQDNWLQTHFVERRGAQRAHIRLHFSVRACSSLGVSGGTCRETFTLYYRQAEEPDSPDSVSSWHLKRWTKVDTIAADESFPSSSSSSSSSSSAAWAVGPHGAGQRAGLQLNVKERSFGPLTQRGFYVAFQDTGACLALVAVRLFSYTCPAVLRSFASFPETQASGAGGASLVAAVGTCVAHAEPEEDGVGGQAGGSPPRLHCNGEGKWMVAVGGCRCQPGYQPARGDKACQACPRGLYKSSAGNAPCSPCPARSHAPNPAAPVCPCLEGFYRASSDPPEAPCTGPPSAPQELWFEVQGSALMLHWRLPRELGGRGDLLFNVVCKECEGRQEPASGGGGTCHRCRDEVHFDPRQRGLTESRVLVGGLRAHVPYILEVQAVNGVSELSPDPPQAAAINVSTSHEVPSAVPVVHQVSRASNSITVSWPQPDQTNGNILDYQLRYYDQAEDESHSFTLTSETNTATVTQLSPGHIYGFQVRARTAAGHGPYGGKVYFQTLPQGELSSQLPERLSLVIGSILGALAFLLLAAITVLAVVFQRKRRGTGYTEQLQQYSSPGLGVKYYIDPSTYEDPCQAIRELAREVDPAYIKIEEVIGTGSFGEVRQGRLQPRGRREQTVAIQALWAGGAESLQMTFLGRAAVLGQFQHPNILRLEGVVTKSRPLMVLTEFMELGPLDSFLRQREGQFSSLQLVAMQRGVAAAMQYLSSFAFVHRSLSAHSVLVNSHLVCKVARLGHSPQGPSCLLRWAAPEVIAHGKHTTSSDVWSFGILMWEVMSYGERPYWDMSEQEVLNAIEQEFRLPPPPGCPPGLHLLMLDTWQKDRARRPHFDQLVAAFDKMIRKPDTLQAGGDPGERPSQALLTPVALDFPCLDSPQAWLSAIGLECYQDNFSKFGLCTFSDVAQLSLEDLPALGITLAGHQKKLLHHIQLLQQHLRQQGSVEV
AURKC, sequence (Q9UQB9 whole entry): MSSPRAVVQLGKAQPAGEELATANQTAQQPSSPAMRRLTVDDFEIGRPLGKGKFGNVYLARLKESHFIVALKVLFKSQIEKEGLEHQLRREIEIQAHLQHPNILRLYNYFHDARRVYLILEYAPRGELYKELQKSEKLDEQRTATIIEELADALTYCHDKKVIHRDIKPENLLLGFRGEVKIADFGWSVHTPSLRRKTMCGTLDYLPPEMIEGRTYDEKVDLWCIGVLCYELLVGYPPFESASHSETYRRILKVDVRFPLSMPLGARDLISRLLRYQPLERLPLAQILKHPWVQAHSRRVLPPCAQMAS

Structure (SMILES): COc1ccc(-c2ccc3c(N4CCOC[C@@H]4C)nc(N4CCOC[C@@H]4C)nc3n2)cc1CO [AZD8055]
- apparent dissociation constant (-log10 M) (EPHB6): < 6
- apparent dissociation constant (-log10 M) (EPHA7): < 6
- apparent dissociation constant (-log10 M) (PIK3CD; [1]): 6.57
- apparent dissociation constant (-log10 M) (AURKC): < 6
- apparent dissociation constant (-log10 M) (CAMKK1): < 6
- apparent dissociation constant (-log10 M) (TAOK2): < 6
- apparent dissociation constant (-log10 M) (KIAA1804): < 6
- apparent dissociation constant (-log10 M) (CSNK1G2): < 6

Structure (SMILES): CCNC(=O)Nc1ccc(-c2nc(N3CCOC[C@@H]3C)c3c(n2)C(C)(C)S(=O)(=O)C3)cc1 [CZ415]
- apparent dissociation constant (-log10 M) (EPHB6): < 6
- apparent dissociation constant (-log10 M) (CAMK1D): < 6
- apparent dissociation constant (-log10 M) (ACVRL1): < 6
- apparent dissociation constant (-log10 M) (RIPK4): < 6
- apparent dissociation constant (-log10 M) (ADCK4): < 6
- apparent dissociation constant (-log10 M) (EPHA7): < 6
- apparent dissociation constant (-log10 M) (PIK3CD; affinity matrix / lysate: Kinobeads, mixed HEK293/K-562/placenta lysate): < 6
- apparent dissociation constant (-log10 M) (PIK3CD; [1]): < 6
- apparent dissociation constant (-log10 M) (RNASEL): < 6
- apparent dissociation constant (-log10 M) (PRKACA): < 6
- apparent dissociation constant (-log10 M) (CSNK1G1): < 6
- apparent dissociation constant (-log10 M) (ADCK5): < 6
- apparent dissociation constant (-log10 M) (DYRK2): < 6
- apparent dissociation constant (-log10 M) (CAMKK1): < 6
- apparent dissociation constant (-log10 M) (MAPK10): < 6
- apparent dissociation constant (-log10 M) (TAOK2): < 6
- apparent dissociation constant (-log10 M) (CAMK1): < 6
- apparent dissociation constant (-log10 M) (MAP3K10): < 6
- apparent dissociation constant (-log10 M) (RP6-213H19 1): < 6
- apparent dissociation constant (-log10 M) (KIAA1804): < 6
- apparent dissociation constant (-log10 M) (MAPK15): < 6
- apparent dissociation constant (-log10 M) (EIF2AK3): < 6
